Earlier results in patent US20160143876A1, “MAINTENANCE THERAPY REGIME/REGIMEN FOR THE TREATMENT OF ACNE” (GALDERMA RESEARCH & DEVELOPMENT, priority 2008, published 2016).

What was measured:
[1] = applied as monotherapy
acne = conditions: in vivo

SMILES	Tolerability profile compared to other topical retinoids [1]	Patients who relapse after treatment (acne)
COc1ccc(-c2ccc3cc(C(=O)O)ccc3c2)cc1C12CC3CC(CC(C3)C1)C2 [Adapalene, 6-[3-(1-adamantyl)-4-methoxyphenyl]-2-naphtoic acid]	more favorable tolerability profile	–
CC1=C(/C=C/C(C)=C/C=C/C(C)=C\C(=O)O)C(C)(C)CCC1 [isotretinoin]	–	up to 21%
